The text below walks through data of US6559289B1, “Use of growth hormone or analogues thereof for the treatment of mammals with familial hypercholesterolemia” (Salhtech I Goteborg AB, priority 1998, dated 2003).

Data set [1] relates to HMG CoA reductase mRNA. As to the kind of experiment: HMG CoA reductase mRNA levels by solution hybridization after GH infusion. In kind it is in vivo, mice. The following applies: liver. The procedure:
(§1) Total nucleic acids were extracted from a sample of liver from each individual and incubated with the respective complementary radio-labeled cRNA probe.

For data set [2], the system named is LDL receptors. As to the kind of experiment: Ligand blot assay of hepatic LDL-receptors after GH treatment. The following applies: C57BL/6J mice, pooled livers. The format is in vivo. The procedure: Ligand blot assay of LDL-receptors was performed using ^125I-labeled rabbit β-migrating very low density lipoprotein (VLDL), as described previously (Rudling et al 1992. PNAS 89; 6983-6987). Membrane proteins were separated by SDS-PAGE (6% poly-acrylamide). After electrotransfer of proteins to nitrocellulose filters and subsequent incubation ^125I-β-VLDL filters were exposed onto DuPont X-ray film at −70° C.
The absence of LDL receptors in LDLRKO animals was confirmed by ligand blot of hepatic membranes obtained from pooled livers from each animal group, using β-VLDL as ligand (not shown). The expression of LDL receptors in C57BL/6J mice was not altered by GH treatment.

Data set [3] has as its system LDLRKO mice. In words: Cholestyramine, atorvastatin and GH alone and in combination: plasma cholesterol and triglycerides. In kind it is in vivo. The following applies: 6 days of treatment.
For data set [4], the system named is LDLRKO mice. As to the kind of experiment: FPLC size-fractionation of plasma lipoproteins after GH infusion. In kind it is in vivo. The procedure:
(§2) Equal volumes of plasma from each animal were pooled (1-2 mL) and the density was adjusted to 1.21 g/mL with solid KBr. After ultracentrifugation at 10^5 g for 48 h, the supernatant was removed and adjusted with 0.15 M NaCl, 0.01% etylene diamine tetraacetic acid, (EDTA), 0.02% sodium azide, pH 7.3. An aliquot of this solution was injected on a 54×1.8 cm superose 6B column after filtration through a Millipore […] HA filter, 2-mL fractions were collected.
(§3) FIGS. 2 and 3 show the lipoprotein patterns in the four groups of animals described in legend to FIG. 1. Equal volumes of plasma from each animal were pooled and subjected to ultracentrifugation at density 1.21. The supernatant was thereafter separated on a Superose 6 column and fractionated.

Data set [5] deals with C57BL/6J mice. The data set is described as above. The format is in vivo. Conditions: pooled plasma, first experiment. The procedure:
as §2, §3

Data set [6] has as its system C7αOH mRNA. As to the kind of experiment: C7αOH mRNA levels by solution hybridization after GH infusion. The format is in vivo, mice. The following applies: GH treatment, liver. The procedure:
as §1

For data set [7], the system named is LDLRKO mice. In words: GH infusion for six days: total plasma cholesterol, triglycerides and total hepatic cholesterol. In kind it is in vivo. From the text: (§4) The studies were approved by the Institutional Animal Care and Use Committee, Sweden. Altogether 75 male LDLRKO and 45 C57 BL/6J mice were purchased from Bommice, Denmark. Animals were housed under standardized conditions in groups of ten. The mice had free access to water and chow; the light cycle hours were between 6 a.m. and 6:00 p.m. At the start of the experiment, osmotic mini pumps containing GH were implanted subcutaneously under light ether anesthesia. Non-GH treated animals were sham-operated. Recombinant human GH (Genotropin®), purchased from Pharmacia & Upjohn, was infused at a rate of 1.0 mg/kg per day. After six days of infusion, animals where anesthetized with ether, and blood was collected from the eye. The mice where thereafter killed by cervical dislocation. The livers were immediately removed and when indicated, 1 g of liver was taken for subsequent preparation of microsomes for assay of enzyme activity as described below. The remaining liver was immediately frozen in liquid nitrogen and stored at −70° C.
(§5) The total hepatic cholesterol was determined, following extraction and subsequent drying under nitrogen from liver samples, as described (Rudling M. J. Lipid Res. 33: 493-50 1992). Total hepatic and plasma cholesterol and plasma triglycerides were assayed using commercial available methods (Boehringer-Mannheim, Mannheim, Germany).
(§6) Infusion of GH to C57BL/6J and LDLRKO mice. Two sets of ten animals of each strain were continuously infused at a rate of 1 mg/kg/d. After six days of treatment, animals were killed and plasma and livers were collected.
(§7) To confirm this surprising finding of a plasma cholesterol lowering effect of GH in LDLR deficient animals with pronounced hypercholesterolemia, the previous experiment was repeated. In addition, we wanted to also determine the enzymatic activities of 3-hydroxy-3-methyl-glutaryl coenzyme A, (HMG CoA) reductase, and cholesterol 7α hydroxylase, (C7αOH), being the rate limiting steps in the synthesis of cholesterol and bile acids, respectively. Animals received the same dose of GH that was infused for six days.
(§8) FIG. 1 is a graph that depicts total plasma cholesterol, triglycerides and total hepatic cholesterol in normal (C57 BL) and LDLRKO (KO) mice±GH (1 mg/kg/day) for 6 days. Each group consisted of 10 animals. Bars indicate SEM.
(§9) Each group consisted of 10 animals. Bars indicate SEM.

Data set [8] has as its system C57BL/6J mice. The description is as above. The format is in vivo. The following applies: GH 1 mg/kg/d infusion.
Excerpt: as §4, §5, §6, §7, §8, §9

Data set [9] deals with cholesterol 7α hydroxylase (C7αOH). In words: Enzymatic activity of C7αOH in hepatic microsomes after GH infusion. In kind it is in vivo, mice. Conditions: for increase of C7αOH activity: GH 1 mg/kg/day, six days, hepatic microsomes.
Excerpt: as §4
(§10) Hepatic microsomes were prepared by differential ultracentrifugation of liver homogenates in the absence of fluoride as previously described (Angelin et al 1984, J Lipid Res. 25; 1159-1166, Einarsson et al. 1986, J. Lipid Res. 27; 82-88, Einarsson et al. 1989, J. Lipid Res. 30; 739-746). Microsomal HMG CoA reductase was assayed from the conversion of [^14C] HMG CoA to mevalonate, and expressed as picomoles formed per mg protein per min. The activity of C7αOH was determined from the formation of 7α-hydroxycholesterol (picomoles/mg protein/min) from endogenous microsomal cholesterol by the use of isotope dilution-mass spectrometry as described in detail. All enzyme assays were carried out in duplicate.
(§11) The means and standard error of means from three separate pools of all animals are shown.

Data set [10] concerns HMG CoA reductase. In words: Enzymatic activity of HMG CoA reductase in hepatic microsomes after GH infusion. Conditions: for increase of HMG CoA reductase activity: GH 1 mg/kg/day, six days, hepatic microsomes. In kind it is in vivo, mice.
Excerpt: as §4, §10, §11

[11] abbreviates: LDLRKO mice, GH 1 mg/kg/d infusion, six days.
The mark [12] stands for this setting: repeated experiment, same GH dose, six days (FIG. 4).

“Also recorded” adds a separate entry of the source.

As for “GH: Recombinant human GH (Genotropin), purchased from Pharmacia & Upjohn, infused at 1.0 mg/kg per day”, the “HMG CoA reductase mRNA levels” value in [1] (C57/BL6J mice) is “no effect”. The “increase of HMG CoA reductase mRNA levels” value in data set [1] (LDLRKO mice) was found to be 20%. The “expression of LDL receptors (ligand blot of hepatic membranes)” value in data set [2] is on record as “not altered”. Further, the “reduction of plasma cholesterol” value in [3] (groups of 5) stood at 10%. For the same substance, the “reduction of plasma triglycerides” value in data set [3] (groups of 5) is given as “approx. 20%”. In [4] (LDLRKO mice, pooled plasma, first experiment (FIG. 2)), the “reduction of lipoprotein cholesterol by FPLC size fraction” value is “within all size fractions”. For the same substance, in [4] (LDLRKO mice, pooled plasma, first experiment (FIG. 3)), the “reduction in lipoprotein triglycerides by FPLC size fraction” value is listed as “only within VLDL particles”. In addition, in [4] (repeated experiment (FIG. 5)), the “plasma lipoprotein cholesterol by FPLC” value is “lowered plasma lipoprotein cholesterol, particularly within VLDL and LDL particles”. In data set [4] (repeated experiment (FIG. 6)), the “lipoprotein triglycerides by FPLC” value is “not only reduced among VLDL particles but also within LDL and HDL particles”. The “lipoprotein triglycerides by FPLC size fraction” value in data set [5] is “increased triglycerides within VLDL particles”. Moreover, the “reduction in C7αOH mRNA level” value in [6] (C57/BL6J mice) is listed as 50%. In addition, the “increase of C7αOH mRNA level” value in data set [6] (LDLRKO mice) came out at 170%. Besides, the “reduced plasma cholesterol level” value in [7] (LDL-receptor knockout mice, GH infusion) is 30-40%. Moreover, the total hepatic cholesterol result in data set [7] (setting [11]) is on record as “slight reduction”; in data set [8] (normal C57BL/6J mice), “slightly increased”. Further, the total plasma triglycerides entry in data set [7] (setting [11]) is listed as “slight but not significant reduction”; in data set [8] (C57BL/6J mice), “unaltered”. Also, the total plasma cholesterol result is “clearly reduced” in data set [7] (LDLRKO mice, GH 1 mg/kg/d infusion, six days, first experiment) and “no significant effect; also recorded: no reduction” in data set [8] (C57BL/6J (normal) mice). For the same substance, the “reduction of total plasma cholesterol versus first experiment” value in data set [7] (setting [12]) is given as “slightly less pronounced”. Besides, the “total plasma cholesterol and triglycerides, and total hepatic cholesterol versus first experiment” value in data set [7] (setting [12]) is recorded as “practically identical results”. For the same substance, the “increase of C7αOH activity” value in data set [9] (C57/BL6J mice) stood at 115%; in [9] (LDLRKO mice), 46%. In addition, the “enzymatic activity of C7αOH (in words)” value in data set [9] (LDLRKO mice, GH infusion) is “stimulated; also recorded: normalized”; in [9] (normal mice, GH treatment), “stimulated”. Moreover, the “increase of HMG CoA reductase activity” value in data set [10] (C57/BL6J mice) came out at 53%; in [10] (LDLRKO mice) it was 113%. In addition, the “enzymatic activity of HMG CoA reductase (in words)” value in data set [10] (LDLRKO mice, GH infusion) was “increased the activity to the same level as found in normal C57BL/6J animals; also recorded: normalized”.

cholestyramine [reference compound]: the “effect on plasma cholesterol (in words)” value in data set [3] (drug alone) is listed as “no effects”.
